In US20180353483A1, “PHARMACEUTICAL COMPOSITIONS AND METHODS FOR INDOLEAMINE, 2, 3-DIOXYGENASE INHIBITION AND INDICATIONS THEREFOR” (Incyte Corporation, priority 2015, published 2018):
Read-outs that look alike come from different tables or passages of the source.

Assay: Pharmacokinetics of Compound 1 in combination with MK-3475 in subjects with various cancers
Type: in vivo, human
Details: human, plasma, oral; for tmax: read-out: tmax; for concentration at 8 day (cycle 1): read-out: Cmin
Description: The subjects were not limited to a specific cancers and study include subjects with various cancers. […] One treatment cycle consisted of 21 days. […] Additional subjects were enrolled in a cohort to achieve the minimum of 3 evaluable subjects if dropouts or dose interruptions or reductions occur that result in a subject being non-evaluable for DLTs. […] An additional safety cohort was opened at 100 mg BID in parallel to 300 mg BID being tested. This may also be limited to subjects with melanoma, NSCLC, or specific cancer types from among those included in Phase 1. The RP2D was selected from the evaluated safety expansions.
If a dose was missed by more than 4 hours, that dose was skipped and was resumed at the scheduled time.
Pharmacokinetic samples were obtained at the visits of Cycle 1 Day 1, Cycle 1 Day 8 and Cycle 2 Day 1. […] The exact date and time of the PK blood draws were recorded in the eCRF along with the date and time of the last dose of study drug and details of the last meal preceding the blood draw.
The planned PK time points were used for preliminary PK analyses.

[1] = 100 mg BID, Diagnosis DLBCL, steady state C1D8, individual values of 2 subjects
[2] = 100 mg BID, Diagnosis GU, steady state C1D8, mean ± SD
[3] = 100 mg BID, Diagnosis NSCLC PD-L1 High, steady state C1D8, mean ± SD

## NS(=O)(=O)NCCNc1nonc1C(=NO)Nc1ccc(F)c(Br)c1 [Compound 1, 4-({2-[(aminosulfonyl)amino]ethyl}amino)-N-(3-bromo-4-fluorophenyl)-N′-hydroxy-1,2,5-oxadiazole-3-carboximidamide]
100 mg BID, All diagnoses, steady state C1D8, geometric mean, read-out: AUC0-12 h (converted)
  AUC(0-t): 4.26 µM·h
100 mg BID, All diagnoses, steady state C1D8, mean ± SD
  Cmax: 1100 ± 467 nM
100 mg BID, All diagnoses, steady state C1D8, mean ± SD, read-out: AUC0-12 h (converted)
  AUC(0-t): 4.62 ± 2.14 µM·h
[1]
  Cmax: 883 nM
  tmax: 4 h
100 mg BID, Diagnosis DLBCL, steady state C1D8, individual values of 2 subjects, read-out: AUC0-12 h (converted)
  AUC(0-t): 5.32 µM·h
100 mg BID, Diagnosis GU, steady state C1D8, geometric mean
  Cmax: 1030 nM
100 mg BID, Diagnosis GU, steady state C1D8, geometric mean, read-out: AUC0-12 h (converted)
  AUC(0-t): 4.41 µM·h
[2]
  Cmax: 1100 ± 400 nM
  concentration at 8 day (cycle 1): 154 ± 203 nM
100 mg BID, Diagnosis GU, steady state C1D8, mean ± SD, read-out: AUC0-12 h (converted)
  AUC(0-t): 4.98 ± 3.01 µM·h
100 mg BID, Diagnosis MEL, steady state C1D8, geometric mean
  Cmax: 945 nM
100 mg BID, Diagnosis MEL, steady state C1D8, geometric mean, read-out: AUC0-12 h (converted)
  AUC(0-t): 3.57 µM·h
100 mg BID, Diagnosis MEL, steady state C1D8, mean ± SD
  Cmax: 1000 ± 347 nM
100 mg BID, Diagnosis MEL, steady state C1D8, mean ± SD, read-out: AUC0-12 h (converted)
  AUC(0-t): 3.68 ± 0.852 µM·h
100 mg BID, Diagnosis NSCLC PD-L1 High, steady state C1D8, geometric mean, read-out: AUC0-12 h (converted)
  AUC(0-t): 4.15 µM·h
[3]
  Cmax: 939 ± 549 nM
  concentration at 8 day (cycle 1): 159 ± 77.7 nM
100 mg BID, Diagnosis NSCLC PD-L1 High, steady state C1D8, mean ± SD, read-out: AUC0-12 h (converted)
  AUC(0-t): 4.43 ± 1.81 µM·h
100 mg BID, Diagnosis NSCLC PD-L1 High, steady state C1D8, median
  tmax: 3 h
100 mg BID, Diagnosis NSCLC PD-L1 Low/NE, steady state C1D8, geometric mean
  Cmax: 867 nM
100 mg BID, Diagnosis NSCLC PD-L1 Low/NE, steady state C1D8, geometric mean, read-out: AUC0-12 h (converted)
  AUC(0-t): 4.3 µM·h
100 mg BID, Diagnosis NSCLC PD-L1 Low/NE, steady state C1D8, mean ± SD
  Cmax: 879 ± 156 nM
100 mg BID, Diagnosis NSCLC PD-L1 Low/NE, steady state C1D8, mean ± SD, read-out: AUC0-12 h (converted)
  AUC(0-t): 4.35 ± 0.828 µM·h
100 mg BID, Diagnosis OC, steady state C1D8, geometric mean
  Cmax: 1110 nM
100 mg BID, Diagnosis OC, steady state C1D8, geometric mean, read-out: AUC0-12 h (converted)
  AUC(0-t): 4.34 µM·h
100 mg BID, Diagnosis OC, steady state C1D8, mean ± SD
  Cmax: 1200 ± 487 nM
100 mg BID, Diagnosis OC, steady state C1D8, mean ± SD, read-out: AUC0-12 h (converted)
  AUC(0-t): 4.66 ± 2.11 µM·h
100 mg BID, Diagnosis SCCHN, steady state C1D8, geometric mean
  Cmax: 821 nM
100 mg BID, Diagnosis SCCHN, steady state C1D8, geometric mean, read-out: AUC0-12 h (converted)
  AUC(0-t): 3.81 µM·h
100 mg BID, Diagnosis SCCHN, steady state C1D8, mean ± SD
  Cmax: 987 ± 612 nM
100 mg BID, Diagnosis SCCHN, steady state C1D8, mean ± SD, read-out: AUC0-12 h (converted)
  AUC(0-t): 4.29 ± 2.3 µM·h
100 mg BID, Diagnosis TNBC, steady state C1D8, geometric mean
  Cmax: 1150 nM
100 mg BID, Diagnosis TNBC, steady state C1D8, geometric mean, read-out: AUC0-12 h (converted)
  AUC(0-t): 4.69 µM·h
100 mg BID, Diagnosis TNBC, steady state C1D8, mean ± SD
  Cmax: 1210 ± 433 nM
100 mg BID, Diagnosis TNBC, steady state C1D8, mean ± SD, read-out: AUC0-12 h (converted)
  AUC(0-t): 5.01 ± 2.09 µM·h
100 mg BID, Dose Reduction By C4D1 subjects (Table 13), steady state C1D8, geometric mean
  Cmax: 953 nM
100 mg BID, Dose Reduction By C4D1 subjects (Table 13), steady state C1D8, geometric mean, read-out: AUC0-12 h (converted)
  AUC(0-t): 4.42 µM·h
100 mg BID, Dose Reduction By C4D1 subjects (Table 13), steady state C1D8, mean ± SD
  Cmax: 1040 ± 551 nM
100 mg BID, Dose Reduction By C4D1 subjects (Table 13), steady state C1D8, mean ± SD, read-out: AUC0-12 h (converted)
  AUC(0-t): 5.1 ± 3.59 µM·h
100 mg, All diagnoses, first dose, geometric mean
  Cmax: 830 nM
100 mg, All diagnoses, first dose, geometric mean, read-out: AUC0-t
  AUC(0-t): 2.63 µM·h
100 mg, All diagnoses, first dose, mean ± SD
  Cmax: 937 ± 469 nM
100 mg, All diagnoses, first dose, mean ± SD, read-out: AUC0-t
  AUC(0-t): 2.87 ± 1.19 µM·h
100 mg, Cohort 3, 100 mg BID, steady state C1D8, geometric mean, read-out: AUC0-12 h (converted)
  AUC(0-t): 3.67 µM·h
100 mg, Cohort 3, 100 mg BID, steady state C1D8, mean ± SD
  Cmax: 956 ± 497 nM
100 mg, Cohort 3, 100 mg BID, steady state C1D8, mean ± SD, read-out: AUC0-12 h (converted)
  AUC(0-t): 3.91 ± 1.35 µM·h
100 mg, Cohort 3, 100 mg, first dose, geometric mean
  Cmax: 521 nM
100 mg, Cohort 3, 100 mg, first dose, geometric mean, read-out: AUC0-t
  AUC(0-t): 1.89 µM·h
100 mg, Cohort 3, 100 mg, first dose, mean ± SD
  Cmax: 632 ± 508 nM
100 mg, Cohort 3, 100 mg, first dose, mean ± SD, read-out: AUC0-t
  AUC(0-t): 2.09 ± 1.15 µM·h
100 mg, Cohort 3, 100 mg, first dose, median
  tmax: 4 h
100 mg, Cohort 5, 100 mg BID, steady state C1D8, geometric mean, read-out: AUC0-12 h (converted)
  AUC(0-t): 3.53 µM·h
100 mg, Cohort 5, 100 mg BID, steady state C1D8, mean ± SD
  Cmax: 905 ± 421 nM
100 mg, Cohort 5, 100 mg BID, steady state C1D8, mean ± SD, read-out: AUC0-12 h (converted)
  AUC(0-t): 3.79 ± 1.43 µM·h
100 mg, Cohort 5, 100 mg, first dose, geometric mean
  Cmax: 787 nM
100 mg, Cohort 5, 100 mg, first dose, geometric mean, read-out: AUC0-t
  AUC(0-t): 2.46 µM·h
100 mg, Cohort 5, 100 mg, first dose, mean ± SD
  Cmax: 852 ± 340 nM
100 mg, Cohort 5, 100 mg, first dose, mean ± SD, read-out: AUC0-t
  AUC(0-t): 2.58 ± 0.778 µM·h
100 mg, Cohort 5, 100 mg, first dose, median
  tmax: 1.5 h
100 mg, Diagnosis DLBCL, first dose, geometric mean
  Cmax: 664 nM
